According to ChEMBL document CHEMBL1201862, “PubChem BioAssay data set” (2004):
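A five-concentration, 48-hour dose response in 96-well plates underlies each endpoint, interpolated linearly between surrounding concentrations. GI50 = concentration required for 50% inhibition of growth.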 Activity calls are given as the source filed them. Cut-off read from the data, not from the text of the source: active = GI50 up to about 1.1 µM and inactive = higher.

Columns and labels:
Test in all cases: growth of human tumour cells (NCI), 48 h
[1] = system: 786-0
[2] = system: A549
[3] = system: CAKI-1
[4] = system: COLO 205
[5] = system: DU-145
[6] = system: HCT-15
[7] = system: HL-60
[8] = system: Hs-578T
[9] = system: K562
[10] = system: LOX IMVI
[11] = system: MDA-MB-231
[12] = system: MOLT-4
[13] = system: Malme-3M
[14] = system: NCI-H226
[15] = system: OVCAR-5
[16] = system: RXF 393
[17] = system: SK-MEL-5
[18] = system: SK-OV-3
[19] = system: SN12C
[20] = system: UACC-62

| SMILES | GI50 [1] | GI50 [2] | GI50 [3] | GI50 [4] | GI50 [5] | GI50 [6] [µM] | GI50 [7] | GI50 [8] | GI50 [9] | GI50 [10] | GI50 [11] | GI50 [12] | GI50 [13] | GI50 [14] | GI50 [15] | GI50 [16] | GI50 [17] | GI50 [18] | GI50 [19] | GI50 [20] |
| --- | --- | --- | --- | --- | --- | --- | --- | --- | --- | --- | --- | --- | --- | --- | --- | --- | --- | --- | --- | --- |
| CCOC(=O)C(NC(=O)c1ccccc1)(c1ccc(S(=O)(=O)Nc2onc(C)c2C)cc1)C(F)(F)F (stereo not given) | > 100 µM (inactive) | > 100 µM (inactive) | > 100 µM (inactive) | > 100 µM (inactive) | > 100 µM (inactive) | > 100 | > 100 µM (inactive) | > 100 µM (inactive) | > 100 µM (inactive) | > 100 µM (inactive) | > 100 µM (inactive) | > 100 µM (inactive) | > 100 µM (inactive) | > 100 µM (inactive) | > 100 µM (inactive) | > 100 µM (inactive) | > 100 µM (inactive) | 0.495 µM (active) | > 100 µM (inactive) | > 100 µM (inactive) |
| CCOC(=O)Nc1ccc2c(c1)N(C(=O)CCN(CC)CC)c1ccccc1S2 [ETHACIZINE] | 24.4 µM (inactive) | 34.3 µM (inactive) | 36.4 µM (inactive) | 20.5 µM (inactive) | 50.1 µM (inactive) | 30.4 | 18.9 µM (inactive) | 50.4 µM (inactive) | 25.8 µM (inactive) | 17.6 µM (inactive) | 26.1 µM (inactive) | 22.9 µM (inactive) | 18.7 µM (inactive) | 51.2 µM (inactive) | 57.1 µM (inactive) | 21.6 µM (inactive) | 19.2 µM (inactive) | 35 µM (inactive) | 28.6 µM (inactive) | 21.5 µM (inactive) |
| O=C(O)CNC(=O)c1ccccc1O [SALICYLURIC ACID] | > 100 µM (inactive) | > 100 µM (inactive) | > 100 µM (inactive) | > 100 µM (inactive) | > 100 µM (inactive) | > 100 | > 100 µM (inactive) | > 100 µM (inactive) | > 100 µM (inactive) | > 100 µM (inactive) | > 100 µM (inactive) | > 100 µM (inactive) | > 100 µM (inactive) | > 100 µM (inactive) | > 100 µM (inactive) | > 100 µM (inactive) | > 100 µM (inactive) | > 100 µM (inactive) | > 100 µM (inactive) | > 100 µM (inactive) |
